Measured values reported in patent US8785471B2, “Pharmaceutical composition containing ferulic acid and matrine compounds, the preparation and the use thereof” (Qingdao Qiyuan Bio-Technologies Co., Ltd., priority 2008, dated 2014).
pIC50: −log10 of the molar value. Like-named read-outs stand apart in the source and are kept apart here. Marks after values point to notes of the source that are not given here.

Legend:
[1] = tested on: mice; experiment: Mice gastrointestinal motility, carbon powder propulsion; assay type: in vivo; details: 3 days
From the text: Materials and reagents: oxymatrine injection (Xinhua Inc., batch No.: 0306003), neostigmine methylsulfate injection (Tianfu Inc., batch No.: 0404131), atropine sulfate injection (Tianfu Inc., batch No.: 0409271), morphine sulfate controlled-release tablets (Mengdi Inc., batach No.: 04082312).
Animals and feeding environment: healthy SPF grade Kunming mice, half male, weight 18-22 g, provided by Lvye Inc., certificate No.: SYXK(LU)20030020. Every 10 mice were placed in one cage. Mice feeding was provided by Shandong experimental animal center. Experimental mice fed in barrier system with filtered air, at the room temperature of 18-22° C. and humidity at 50-60%, with 12 hours light radiation per day.
Methods: The mice were intragastric administrated with testing compositions or controls for consecutive 3 days. Before the last administration, the mice were stopped feeding and supplied with water for 16 hours. 30 minutes after the last administration, the mice were intragastric administrated with 0.2 ml 5% activated carbon suspension. 20 minutes later, the mice were sacrificed by cervical dislocation. The abdominal cavity was opened and bowel was collected from pylorus to ileocecal. The bowel was placed on a tray and straightened. The total length of small intestine was measured, as well as the advanced distance of carbon powder in the intestine from pylorus. The percentage of carbon powder propulsion was calculated by the following formula: percentage of carbon powder propulsion=advanced distance of carbon powder/total length of small intestine×100%

[2] = molecular target: T1, blood acetylcholinesterase (Rattus norvegicus, UniProt P37136); experiment: Anticholinesterase effect on rat blood acetylcholinesterase; assay type: biochemical, rats
T1 construct: 0.05 ml each diluted composition was pipetted into 0.5 ml diluted rats blood; from tissue; host or cells: rat whole blood, anticoagulated, diluted 10 times with physiological saline
T1 sequence (P37136 32-614): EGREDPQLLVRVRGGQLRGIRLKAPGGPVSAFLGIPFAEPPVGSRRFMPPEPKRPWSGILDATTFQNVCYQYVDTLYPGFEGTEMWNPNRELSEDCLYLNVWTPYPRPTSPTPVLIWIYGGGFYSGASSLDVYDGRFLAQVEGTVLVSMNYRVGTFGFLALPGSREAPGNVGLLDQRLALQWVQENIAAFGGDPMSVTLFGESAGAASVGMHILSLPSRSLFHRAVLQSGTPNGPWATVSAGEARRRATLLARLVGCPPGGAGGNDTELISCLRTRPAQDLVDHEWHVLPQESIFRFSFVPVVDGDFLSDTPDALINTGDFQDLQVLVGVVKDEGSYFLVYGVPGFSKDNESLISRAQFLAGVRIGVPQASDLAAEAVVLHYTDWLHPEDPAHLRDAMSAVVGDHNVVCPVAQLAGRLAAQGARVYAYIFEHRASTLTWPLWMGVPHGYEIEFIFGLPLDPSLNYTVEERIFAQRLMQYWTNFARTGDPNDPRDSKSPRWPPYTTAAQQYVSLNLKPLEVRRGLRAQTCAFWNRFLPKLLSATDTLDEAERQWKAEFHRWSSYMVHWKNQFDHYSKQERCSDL
Procedure: Methods: 5 ml blood was collected from healthy rats, stored in tubes containing anticoagulants and diluted 10 times with physiological saline (ready for use). The testing compositions were diluted with physiological saline to 0, 5, 10, 20, 40, 80, 160, 320, 640 mg/l concentrations, respectively. 0.05 ml each diluted composition was pipetted into 0.5 ml diluted rats blood, mixed thoroughly and incubated at 37° C. for 1 hour. The activity of blood acetylcholinesterase was measured according to the acetylcholinesterase kit. The half inhibitory concentration (IC50) was calculated.

[3] = tested on: patients with rash; experiment: Effect on rash in patients; assay type: in vivo; details: 10 patients, 1% applied on rash area, after 10 minutes
Procedure: Patient selection: 18-25 years old of either gender with rash at both body sides. Each composition was tested on 10 patients. Test was carried out with single-blind and self control. 1% composition or control was applied on rash area at left side of the body, and physiological saline was applied on rash area at the right side. After 10 minutes, the effects were evaluated.
Effect evaluation: Obviously effective if both rash and itching feeling disappear; effective if parts of rash and itching feeling disappear; invalid if both rash and itching feeling keep unchanged.

[4] = tested on: mice; experiment: Analgesic effect, acetic acid writhing test in mice; assay type: in vivo; details: intragastric 20 mg/kg for 3 days, 0.6% acetic acid ip, writhing within 15 minutes
Procedure: Method: Healthy mice were selected, each group containing 10 mice. The mice were intragastric administrated with 20 mg/kg testing compositions or control compositions for consecutive 3 days. 30 minutes after the last administration, the mice were intra-peritoneally (ip) injected with 10 ml/kg of 0.6% acetic acid. The writhing numbers of the mice within 15 minutes were recorded. The analgesic percentage was calculated.
Analgesic percentage(%)=(writhing numbers of blank control group−writhing numbers of testing group)/writhing numbers of blank control group×100%

[5] = tested on: hepatic stellate cells; experiment: Proliferation of hepatic stellate cells (MTT absorbance); assay type: cell-based, rats; details: 50 μmol/l, 48 hours, 570 nm, mean ± SD
Procedure: (§1) Materials and reagents: ELISA kit for rats type I collagen, trypsin, fetal bovine serum, etc.
(§2) Methods: Revived hepatic stellate cell (HSC) seeds were placed in a 100 ml plastic incubation flask and incubated in a CO2 incubator (inside 5% CO2, 95% humidity). The medium was discarded when the cells grew into a single layer. Digestion solution (5% trypsin) was added. The digestion solution was removed and centrifuged at 2200 rpm for 7 minutes. The supernatant was discarded, washed and centrifuged with DMEM incubation solution. The cells were suspended in a DMEM solution containing 20% fetal bovine serum, and the cell numbers were counted. The cell suspension was diluted with a DMEM solution and seeded in 96 well culture plate, each well having 100 μl diluted suspension. After 48 hours, the solution was removed and the cells were washed with a DMEM incubation solution containing 10% bovine serum to synchronize the cells at stable phrase. The cells were treated with testing compositions diluted in physiological saline (50 μmol/l). Each treatment tested 6 wells and repeated for 3 times. After 48 hours, incubation was terminated. […] The HSC absorbance at wavelength 570 nm was measured by microplate reader. […] The supernatant was obtained and the type I collagen content was measured according to the instructions in the type I collagen kit.

[6] = tested on: mice; experiment: Anti-inflammatory effect, xylene ear swelling in mice; assay type: in vivo; details: xylene on right ear, ear coated with 1% composition, 30 minutes later
Procedure: Healthy mice were selected, each group containing 10 mice. After weighing and marking, the right ear of the mice was contacted with xylene cotton ball for 5 seconds, leaving the left ear as control. 10 minutes after proinflammatory treatment, the right ear was coated with testing compositions (1%), control ingredients (individual ferulic acid or oxymatrine) or blank control (physiological saline). 30 minutes later, the mice was sacrificed by cervical dislocation. The same volume of tissues was collected from left ear (control) and fight ear (treated with xylene) by hole puncher (diameter: 6 mm), and weighed. The ear swelling percentage was calculated. Ear swelling percentage (%)=(Weight of right ear−Weight of left ear)/Weight of left ear×100%

[7] = tested on: type I collagen content of hepatic stellate cells; experiment: Type I collagen content of hepatic stellate cells (ELISA kit); assay type: cell-based, rats; details: 50 μmol/l, HSC supernatant; mean ± SD
Procedure: as §1, §2

[8] = tested on: AChE activity in cortex tissue and blood; details: model rats, intragastric 50 μg/kg, 7 days; mean ± SD
Procedure: Animal grouping, modeling and administration: 57 female Wistar rats (15 month old, 300-450 g, from animal center of Qingdao Institute for Drug Control, fed under normal conditions and natural light with unlimited drink and food) were randomly separated into 6 groups. Rats in normal control group were intraperitoneal injected with physiological saline for 6 weeks and injected physiological saline into the meynert nucleus basalis. Rats in modeling control group were injected intraperitoneally with D-galactose (48 mg/kg/d) for 6 weeks and injected with ibotenic acid into the meynert nucleus basalis. […] The rats in the normal and modeling control groups were intragastrically administrated with physiological saline for consecutive 7 days. 1 hour after the last administration, the learning ability of all the rats; was evaluated. Then, the rats were anesthetized with Pentobarbital. 5 ml blood was collected from abdominal aorta. Immediately the cortex tissue was collected and homogenated with physiological saline into 10% (WN). The AChE activity in cortex tissue and blood was measured according to the reagent kit instructions. • 3. […] The shocked times (mistakes) within 5 minutes were recorded as a reference for the learning ability of the rats. […] The latency time for the first jump was recorded as a reference for the memory ability. The shocked times (mistakes) within 5 minutes were also recorded. […]

[9] = tested on: rats; experiment: Alzheimer's disease model rats, learning and memorizing ability in jumping tests; assay type: in vivo; details: intragastric 50 μg/kg, 7 days, mean ± SD
Procedure: Animal grouping, modeling and administration: 57 female Wistar rats (15 month old, 300-450 g, from animal center of Qingdao Institute for Drug Control, fed under normal conditions and natural light with unlimited drink and food) were randomly separated into 6 groups. Rats in normal control group were intraperitoneal injected with physiological saline for 6 weeks and injected physiological saline into the meynert nucleus basalis. Rats in modeling control group were injected intraperitoneally with D-galactose (48 mg/kg/d) for 6 weeks and injected with ibotenic acid into the meynert nucleus basalis. […] The rats in the normal and modeling control groups were intragastrically administrated with physiological saline for consecutive 7 days. 1 hour after the last administration, the learning ability of all the rats; was evaluated. Then, the rats were anesthetized with Pentobarbital. 5 ml blood was collected from abdominal aorta. Immediately the cortex tissue was collected and homogenated with physiological saline into 10% (WN). The AChE activity in cortex tissue and blood was measured according to the reagent kit instructions. • 3. Measurement: testing the memory ability of rats: the rats were placed in an electric box with an escaping platform for 3 minutes to get used to the new environments. The box was then connected to 50V AC. Upon being shocked, the rats can escape the electricity by jumping onto the platform. The shocked times (mistakes) within 5 minutes were recorded as a reference for the learning ability of the rats. After 24 hours, the rats were placed directly on the platform. The latency time for the first jump was recorded as a reference for the memory ability. The shocked times (mistakes) within 5 minutes were also recorded. The latency time of over 5 minutes was considered as 5 minutes.
T testing method was used to evaluate the difference within different groups, and the difference was statistically significant when P<0.05. • 4. […] P represents statistic difference. *P<0.05 means statistically obvious difference, **P<0.01 statistically significant difference.

[10] = tested on: mice; experiment: Acute toxicity in mice; assay type: in vivo; details: single intragastric 1000 mg/kg, 10 mice, 72 hours
Procedure: Methods: Healthy mice were selected, each group containing 10 mice. The mice were intragastric administrated with testing compositions or controls once; and observed for 72 hours. The deaths were recorded.

[11] = tested on: quails of fat arteriosclerosis model; experiment: Anti-atherosclerosis effect, serum TC and TG in quails; assay type: in vivo; details: quail serum, 40 mg/kg intragastric daily, four weeks
From the text: (§3) Testing composition preparation: ferulic acid and oxymatrine were mixed in a mole ratio 1:1 to prepare a solution.
(§4) Methods: According to the method described in reference (Liu et al., 2005. Chinese journal of arteriosclerosis, 13(3): 305-308).
(§5) Test method: 140 male quails were selected and randomly separated into 7 groups: normal control group (healthy quails), modeling control group (fat arteriosclerosis model which is set up by the methods described in reference), positive control group (fat arteriosclerosis model is treated by luofatading 10 mg/kg), ferulic acid control group (tested with ferulic acid 40 mg/kg), large/medium/small dosage testing groups ([…], of testing compositions). Except the normal control group, all the other 6 groups were fat arteriosclerosis models.
(§6) The quails were daily intragastric administrated with testing compositions or controls once per day for consecutive four weeks. The fourth weekend after administration, the content of serum lipid from 10 quails of each group was detected. In the end, pathological examination was conducted on the surviving quails.
Method to detect the content of serum lipid: at the end of the 4th week after administration, feeding was stopped for 12 hours. 2 ml blood was collected from jugular vein. The serum was separated. The contents of serum cholesterol (TC) and triglyceride (TG) were measured according to an enzymatic method.

[12] = tested on: quails of fat arteriosclerosis model; experiment: Anti-atherosclerosis effect, aortic atherosclerosis degree of quails (pathological examination); assay type: in vivo; design: Total atherosclerosis score: scale not given here; details: 40 mg/kg
From the text: as §3, §4, §5, §6

For `O=C1CCC[C@@H]2[C@H]3CCC[N+]4([O-])CCC[C@@H](CN12)[C@@H]34` (stereo partly shown) [Oxymatrine, oxymatrine], the “Percentage of carbon powder propulsion (mean ± SD, %)” value (from here on “Percentage … (mean ± SD, %)”) ([1]; intragastric 10 mg/kg) was 58.85 ± 13.22%, the “Percentage … (mean ± SD, %)” value ([1]; intragastric 20 mg/kg) was 67.49 ± 11.68 % and the pIC50 [2] was 2.56. For the same compound, the “Effective (number of patients)” value [3] was 10, the Analgesic percentage [4] was 29.98% and the Average absorbance [5] was 0.39 ± 0.17. For the same compound, the Ear swelling percentage [6] was 133.4% and the “Type I collagen content” value [7] was 63.42 ± 9.76 µg/L.
In the case of `C/C=C1\[C@H]2C=C(C)C[C@]1(N)c1ccc(=O)[nH]c1C2` [Huperzine A, huperzine A], the “Blood TchE” value [8] was 48 ± 35* mmol/L, the “Cortex TchE” value [8] was 2.0 ± 0.6* μmol/g and the Latency ([9]; after 24 hours) was 135 ± 55* s. For the same compound, the “Mistakes within 5 min” value [9] was 4 ± 2.3* and the “Mistakes within 5 min after 24 hours” value [9] was 2 ± 1.6*.
With `CN(C)C(=O)Oc1cccc([N+](C)(C)C)c1` [Neostigmine, neostigmine] the “Percentage … (mean ± SD, %)” value ([1]; intragastric 4 mg/kg) was 68.55 ± 4.80 % and the IC50 ([2]; diluted rat blood, 37° C., 1 hour, read-out: IC50 (converted)) was 1640 µM.
In the case of `COc1cc(/C=C\C(=O)O)ccc1O` [Ferulic acid, 4-hydroxy-3-methoxy cinnamic acid], the “Percentage … (mean ± SD, %)” value ([1]; intragastric 20 mg/kg) was 54.33 ± 10.22%, the “Effective (number of patients)” value [3] was 3 and the “Invalid (number of patients)” value [3] was 7. The Analgesic percentage [4] was 18.30%, the Average absorbance [5] was 0.42 ± 0.24 and the Ear swelling percentage [6] was 164.6%. For the same compound, the “Type I collagen content” value [7] was 64.36 ± 11.22 µg/L, the Death cases [10] was 0 and the TC [11] was 16.88 ± 6.31 mmol/L. The TG [11] was 3.52 ± 0.73 mmol/L, the “Numbers of quails in aortic atherosclerosis degree 0” value [12] was 1 and the “Numbers of quails in aortic atherosclerosis degree 1” value [12] was 4. For the same compound, the “Numbers of quails in aortic atherosclerosis degree 2” value [12] was 6, the “Numbers of quails in aortic atherosclerosis degree 3” value [12] was 3 and the “Numbers of quails in aortic atherosclerosis degree 4” value [12] was 0. It also gave a Total atherosclerosis score [12] of 25.
